# Experimental data published in patent US20170190671A1, “BIS(ARYL)CATECHOL DERIVATIVES AS HERBICIDES” (E I DU PONT DE NEMOURS AND COMPANY, priority 2014, published 2017).
# Key:
# Assay type in all cases: in vivo
# [1] = system: galium (catchweed bedstraw, Galium aparine); test: Test C preemergence; settings: Galium, pre-emergence, 336 h, scale 0 to 100, read-out: Plant response rating, Galium
# Procedure, shortened: (§1)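 Greenhouse test; preemergence on seeded loam-sand soil or spray on 1- to 4-leaf plants; solvent + surfactant vehicle; 13-15 day hold; visual comparison with controls; 0 (no effect)-100 (complete control).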
# [2] = system: morningglory (Ipomoea coccinea); test: Test C preemergence; settings: Ipomoea, pre-emergence, 336 h, scale 0 to 100, read-out: Plant response rating, Morningglory
# Procedure, shortened: as §1
# [3] = system: oilseed rape (Brassica napus); test: Test C preemergence; settings: Brassica napus, pre-emergence, scale 0 to 100, read-out: Plant response rating, Oilseed Rape
# Procedure, shortened: as §1
# [4] = system: waterhemp (common waterhemp, Amaranthus rudis); test: Test C preemergence; settings: Amaranthus tuberculatus, pre-emergence, scale 0 to 100, read-out: Plant response rating, Waterhemp
# Procedure, shortened: as §1
# [5] = system: Italian ryegrass (Lolium multiflorum); test: Test C postemergence; settings: Lolium multiflorum, post-emergence, 336 h, Postemergence, scale 0 to 100, read-out: Plant response rating, Ryegrass, Italian
# [6] = system: barnyardgrass (Echinochloa crus-galli); test: Test C postemergence; settings: Echinochloa crus-galli, post-emergence, Postemergence, scale 0 to 100, read-out: Plant response rating, Barnyardgrass
# [7] = system: blackgrass (Alopecurus myosuroides); test: Test C postemergence; settings: Alopecurus myosuroides, post-emergence, 336 h, Postemergence, scale 0 to 100, read-out: Plant response rating, Blackgrass
# [8] = system: chickweed (common chickweed, Stellaria media); test: Test C postemergence; settings: Stellaria media, post-emergence, Postemergence, scale 0 to 100, read-out: Plant response rating, Chickweed
# corn (Zea mays) = test: Test C postemergence; settings: Zea mays, post-emergence, 336 h, Postemergence, scale 0 to 100
# [9] = system: johnsongrass (Sorghum halepense); test: Test C postemergence; settings: Sorghum halepense, post-emergence, 336 h, Postemergence, scale 0 to 100, read-out: Plant response rating, Johnsongrass
# kochia (Kochia scoparia) = test: Test C postemergence; settings: Bassia scoparia, post-emergence, Postemergence, scale 0 to 100, read-out: Plant response rating, Kochia
# [10] = system: lambsquarters (Chenopodium album); test: Test C postemergence; settings: Chenopodium album, post-emergence, 336 h, Postemergence, scale 0 to 100, read-out: Plant response rating, Lambsquarters
# [11] = system: large (Lg) crabgrass (Digitaria sanguinalis); test: Test C postemergence; settings: Digitaria sanguinalis, post-emergence, 336 h, Postemergence, scale 0 to 100, read-out: Plant response rating, Crabgrass, Large
# [12] = system: oilseed rape (Brassica napus); test: Test C postemergence; settings: Brassica napus, post-emergence, Postemergence, scale 0 to 100, read-out: Plant response rating, Oilseed Rape
# [13] = system: pigweed (Amaranthus retroflexus); test: Test C postemergence; settings: Amaranthus retroflexus, post-emergence, 336 h, Postemergence, scale 0 to 100, read-out: Plant response rating, Pigweed
# [14] = system: ragweed (common ragweed, Ambrosia elatior); test: Test C postemergence; settings: Ambrosia artemisiifolia, post-emergence, 336 h, Postemergence, scale 0 to 100, read-out: Plant response rating, Ragweed
# soybean (Glycine max) = test: Test C postemergence; settings: Glycine max, post-emergence, Postemergence, scale 0 to 100, read-out: Plant response rating, Soybean
# [15] = system: velvetleaf (Abutilon theophrasti); test: Test C postemergence; settings: Abutilon theophrasti, post-emergence, Postemergence, scale 0 to 100, read-out: Plant response rating, Velvetleaf
# [16] = system: waterhemp (common waterhemp, Amaranthus rudis); test: Test C postemergence; settings: Amaranthus tuberculatus, post-emergence, Postemergence, scale 0 to 100, read-out: Plant response rating, Waterhemp
# wild oat (Avena fatua) = test: Test C postemergence; settings: Avena fatua, post-emergence, Postemergence, scale 0 to 100, read-out: Plant response rating, Oat, Wild
# [17] = system: winter wheat (Triticum aestivum); test: Test C postemergence; settings: Triticum aestivum, post-emergence, 336 h, Postemergence, scale 0 to 100, read-out: Plant response rating, Wheat
# [18] = system: yellow nutsedge (Cyperus esculentus); test: Test C postemergence; settings: Cyperus, post-emergence, 336 h, Postemergence, scale 0 to 100, read-out: Plant response rating, Nutsedge, Yellow
smiles,measurement,setting,value
"Fc1cccc(Oc2ncc(Cl)cn2)c1Oc1ncc(C(F)(F)F)cn1 [Compound 43, 5-chloro-2-[5-fluoro-6-[[5-(trifluoromethyl)-2-pyrimidinyl]oxy]phenoxy]pyrimidine]",pest or weed control at 31 g/ha,"[1]; 31 g ai/ha, preemergence",95%
same,pest or weed control at 62 g/ha,"[1]; 62 g ai/ha, preemergence",100%
same,pest or weed control at 125 g/ha,"[1]; 125 g ai/ha, preemergence",100%
same,pest or weed control at 16 g/ha,"[1]; Preemergence, 16 g ai/ha",95%
same,pest or weed control at 31 g/ha,"[2]; 31 g ai/ha, preemergence",85%
same,pest or weed control at 62 g/ha,"[2]; 62 g ai/ha, preemergence",100%
same,pest or weed control at 125 g/ha,"[2]; 125 g ai/ha, preemergence",100%
same,pest or weed control at 16 g/ha,"[2]; Preemergence, 16 g ai/ha",70%
same,plant injury at 31 g/ha,"[3]; 31 g ai/ha, preemergence",100%
same,plant injury at 62 g/ha,"[3]; 62 g ai/ha, preemergence",100%
same,plant injury at 125 g/ha,"[3]; 125 g ai/ha, preemergence",100%
same,plant injury at 16 g/ha,"[3]; Preemergence, 16 g ai/ha",95%
same,pest or weed control at 31 g/ha,"[4]; 31 g ai/ha, preemergence",100%
same,pest or weed control at 62 g/ha,"[4]; 62 g ai/ha, preemergence",100%
same,pest or weed control at 125 g/ha,"[4]; 125 g ai/ha, preemergence",100%
same,pest or weed control at 16 g/ha,"[4]; Preemergence, 16 g ai/ha",85%
same,pest or weed control at 31 g/ha,[5]; 31 g ai/ha,0%
same,pest or weed control at 62 g/ha,[5]; 62 g ai/ha,10%
same,pest or weed control at 125 g/ha,[5]; 125 g ai/ha,15%
same,pest or weed control at 16 g/ha,[6]; 16 g ai/ha,5%
same,pest or weed control at 31 g/ha,[6]; 31 g ai/ha,5%
same,pest or weed control at 62 g/ha,[6]; 62 g ai/ha,10%
same,pest or weed control at 125 g/ha,[6]; 125 g ai/ha,35%
same,pest or weed control at 16 g/ha,[7]; 16 g ai/ha,0%
same,pest or weed control at 31 g/ha,[7]; 31 g ai/ha,30%
same,pest or weed control at 62 g/ha,[7]; 62 g ai/ha,75%
same,pest or weed control at 125 g/ha,[7]; 125 g ai/ha,95%
same,pest or weed control at 16 g/ha,[8]; 16 g ai/ha,40%
same,pest or weed control at 31 g/ha,[8]; 31 g ai/ha,70%
same,pest or weed control at 62 g/ha,[8]; 62 g ai/ha,70%
same,pest or weed control at 125 g/ha,[8]; 125 g ai/ha,100%
same,"Corn plant response rating (crop injury, 0 = no effect, 100 = complete kill) at 16 g/ha",corn (Zea mays); 16 g ai/ha,5%
same,"Corn plant response rating (crop injury, 0 = no effect, 100 = complete kill) at 31 g/ha",corn (Zea mays); 31 g ai/ha,5%
same,"Corn plant response rating (crop injury, 0 = no effect, 100 = complete kill) at 62 g/ha",corn (Zea mays); 62 g ai/ha,5%
same,"Corn plant response rating (crop injury, 0 = no effect, 100 = complete kill) at 125 g/ha",corn (Zea mays); 125 g ai/ha,5%
same,pest or weed control at 16 g/ha,[9]; 16 g ai/ha,0%
same,pest or weed control at 31 g/ha,[9]; 31 g ai/ha,5%
same,pest or weed control at 62 g/ha,[9]; 62 g ai/ha,10%
same,pest or weed control at 125 g/ha,[9]; 125 g ai/ha,45%
same,pest or weed control at 16 g/ha,kochia (Kochia scoparia); 16 g ai/ha,90%
same,pest or weed control at 31 g/ha,kochia (Kochia scoparia); 31 g ai/ha,95%
same,pest or weed control at 62 g/ha,kochia (Kochia scoparia); 62 g ai/ha,100%
same,pest or weed control at 125 g/ha,kochia (Kochia scoparia); 125 g ai/ha,100%
same,pest or weed control at 16 g/ha,[10]; 16 g ai/ha,60%
same,pest or weed control at 31 g/ha,[10]; 31 g ai/ha,80%
same,pest or weed control at 62 g/ha,[10]; 62 g ai/ha,90%
same,pest or weed control at 125 g/ha,[10]; 125 g ai/ha,95%
same,pest or weed control at 16 g/ha,[11]; 16 g ai/ha,5%
same,pest or weed control at 31 g/ha,[11]; 31 g ai/ha,5%
same,pest or weed control at 62 g/ha,[11]; 62 g ai/ha,10%
same,pest or weed control at 125 g/ha,[11]; 125 g ai/ha,40%
same,plant injury at 31 g/ha,[12]; 31 g ai/ha,50%
same,plant injury at 62 g/ha,[12]; 62 g ai/ha,65%
same,plant injury at 125 g/ha,[12]; 125 g ai/ha,50%
same,pest or weed control at 31 g/ha,[13]; 31 g ai/ha,85%
same,pest or weed control at 62 g/ha,[13]; 62 g ai/ha,90%
same,pest or weed control at 125 g/ha,[13]; 125 g ai/ha,98%
same,pest or weed control at 31 g/ha,[14]; 31 g ai/ha,75%
same,pest or weed control at 62 g/ha,[14]; 62 g ai/ha,65%
same,pest or weed control at 125 g/ha,[14]; 125 g ai/ha,80%
same,plant injury at 31 g/ha,soybean (Glycine max); 31 g ai/ha,55%
same,plant injury at 62 g/ha,soybean (Glycine max); 62 g ai/ha,75%
same,plant injury at 125 g/ha,soybean (Glycine max); 125 g ai/ha,70%
same,pest or weed control at 31 g/ha,[15]; 31 g ai/ha,55%
same,pest or weed control at 62 g/ha,[15]; 62 g ai/ha,75%
same,pest or weed control at 125 g/ha,[15]; 125 g ai/ha,85%
same,pest or weed control at 31 g/ha,[16]; 31 g ai/ha,70%
same,pest or weed control at 62 g/ha,[16]; 62 g ai/ha,80%
same,pest or weed control at 125 g/ha,[16]; 125 g ai/ha,90%
same,pest or weed control at 31 g/ha,wild oat (Avena fatua); 31 g ai/ha,5%
same,pest or weed control at 62 g/ha,wild oat (Avena fatua); 62 g ai/ha,20%
same,pest or weed control at 125 g/ha,wild oat (Avena fatua); 125 g ai/ha,60%
same,plant injury at 31 g/ha,[17]; 31 g ai/ha,0%
same,plant injury at 62 g/ha,[17]; 62 g ai/ha,0%
same,plant injury at 125 g/ha,[17]; 125 g ai/ha,5%
same,pest or weed control at 31 g/ha,[18]; 31 g ai/ha,0%
same,pest or weed control at 62 g/ha,[18]; 62 g ai/ha,0%
same,pest or weed control at 125 g/ha,[18]; 125 g ai/ha,5%
